According to US4194006A, “Therapeutic application of acetyl-d,l-carnitine and other acyl derivatives of d,l-carnitine” (priority 1977, dated 1980):
Like-named read-outs stand apart in the source and are kept apart here.

Tests used:
female rats = assay: antifatigue effect: rota-rod; type: in vivo, rat; conditions: Rattus norvegicus, ip, 0.25 h; for responders at 300 mg/kg: 300 mg/kg i.p.; for responders at 300 mg/kg / responders at 400 mg/kg / responders at 600 mg/kg: read-out: percentage of animals staying on the rota-rod more than 180 seconds; for responders at 400 mg/kg: 400 mg/kg i.p.; for responders at 600 mg/kg: 600 mg/kg i.p.; for responders at 0.25 mg/kg: read-out: percentage of animals staying on the rota-rod more than 180 seconds, 0.25 mg/kg i.p.; for responders at 0.5 mg/kg: read-out: percentage of animals staying on the rota-rod more than 180 seconds, 0.50 mg/kg i.p.; for responders at 1 mg/kg: read-out: percentage of animals staying on the rota-rod more than 180 seconds, 1.00 mg/kg i.p.
Method: The antifatigue effect was also examined with the following results. The antifatigue effect was investigated by administering the compounds of the formula (I) according to the present application to female rats intraperitoneally in saline solution and saline solution alone to the controls by the same route. Every 15 minutes (sessions) after treatment, the animals were placed on a 6 cm diameter rod, rotating at 16 r.p.m. The percentage of the animals capable of staying on the rota-rod for a duration of more than 180 seconds was then recorded.

isolated rabbit hearts [1] = assay: cardiokinetic effect on isolated heart (Langendorff): contractile force after anoxia, positive inotropic effect; conditions: 10 minutes from interruption of anoxic period
Method: (§1) The cardiokinetic effect on isolated heart was also investigated as follows. Rabbit hearts isolated by the Langendorff method were perfused with oxygenized ringer solution at 38.2° C. The isometric contractions, electrocardiogram and coronary flow were recorded using a "Battaglia-Rangoni" polygraph. By removing the oxygen from the perfusion fluid, metabolic damage was induced in the cardia muscle, up to an 80% reduction in the cardiac contractile force.
(§2) Under these conditions of prolonged anoxia the aerobic glycolysis of the myocardium is slowed down, accompanied by the storage of acid catabolites due to both the accumulation of pyruvic acid and its conversion to lactic acid which cannot be utilized because of the depression of pyridine enzymes, such as LDH (lactodehydrogenase). This has repercussions on the anaerobic glycolysis affecting an ever increasing number of enzymes, accompanied by a progressive and increasingly critical exhaustion of the myocardium. Thus a whole series of cardiac muscle fatigue levels occurs which can be observed by the behavior of the examined parameters, namely the contractile force, coronary flow, heart rate and cardiac rhythm. As soon as the contractile force was reduced by 80%, the perfusion fluid was once again oxygenized either without adding other compounds (controls) or with the addition of the compounds under examination.
Table 3 below gives the percentage values of the contractile force of the heart, showing a positive inotropic effect, calculated after 10 minutes from the interruption of the anoxic period (myocardial restoration).

isolated rat atrium = assay: antiarrhythmic effect, isolated rat atrium method of M. Libonati and G. Segre; conditions: Rattus norvegicus; for inhibition at 0.1 µg/mL / activation at 0.1 µg/mL: 1·10^-4 g/lt; for inhibition at 0.1 µg/mL / inhibition at 0.01 µg/mL / inhibition at 0.001 µg/mL: decrease; for activation at 0.1 µg/mL / activation at 0.01 µg/mL / activation at 0.001 µg/mL: increase; for inhibition at 0.01 µg/mL / activation at 0.01 µg/mL: 1·10^-5 g/lt; for inhibition at 0.001 µg/mL / activation at 0.001 µg/mL: 1·10^-6 g/lt
isolated rabbit hearts [2] = assay: coronary vasodilator effect: coronary flow, isolated heart (Langendorff)
Method: as §1, §2

[3] = session 6 (every 15 minutes), * p < 0.05
[4] = read-out: Mean percent variation versus controls: excitability (-%)
[5] = read-out: Mean percent variation versus controls: frequency max (-%)
[6] = read-out: Mean percent variation versus controls: refractory period (+%)
[7] = read-out: Mean percent variation versus controls: rheobase (+%)

## CCCC(=O)OC(CC(=O)[O-])C[N+](C)(C)C (racemic) [butyryl-d,l-carnitine]
Female rats; session 1 (every 15 minutes)
  responders at 300 mg/kg: 0%
  responders at 400 mg/kg: 0%
  responders at 600 mg/kg: 0%
Female rats; session 2 (every 15 minutes)
  responders at 300 mg/kg: 0%
  responders at 400 mg/kg: 0%
  responders at 600 mg/kg: 0%
Female rats; session 3 (every 15 minutes)
  responders at 300 mg/kg: 0%
  responders at 400 mg/kg: 0%
  responders at 600 mg/kg: 10%
Female rats; session 4 (every 15 minutes)
  responders at 300 mg/kg: 0%
  responders at 400 mg/kg: 10%
  responders at 600 mg/kg: 20%
Female rats; session 5 (every 15 minutes)
  responders at 300 mg/kg: 0%
  responders at 400 mg/kg: 10%
  responders at 600 mg/kg: 20%
Female rats; session 6 (every 15 minutes)
  responders at 300 mg/kg: 10%
Female rats; [3]
  responders at 400 mg/kg: 20%
  responders at 600 mg/kg: 40%
Isolated rabbit hearts [1]; 1·10^-5 g/lt
  Contractile force, Mean ± S.E.: 51.5 ± 5.02%
Isolated rabbit hearts [1]; 1·10^-6 g/lt
  Contractile force, Mean ± S.E.: 30.6 ± 4.51%
Isolated rabbit hearts [1]; 5·10^-6 g/lt
  Contractile force, Mean ± S.E.: 35.6 ± 6.19%
Isolated rat atrium; [4]
  inhibition at 0.1 µg/mL: 63.7%
  inhibition at 0.01 µg/mL: 31.9%
  inhibition at 0.001 µg/mL: 12.9%
Isolated rat atrium; [5]
  inhibition at 0.1 µg/mL: 62.3%
  inhibition at 0.01 µg/mL: 30.4%
  inhibition at 0.001 µg/mL: 24.8%
Isolated rat atrium; [6]
  activation at 0.1 µg/mL: 38%
  activation at 0.01 µg/mL: 25.9%
  activation at 0.001 µg/mL: 18.2%
Isolated rat atrium; [7]
  activation at 0.1 µg/mL: 55%
  activation at 0.01 µg/mL: 40.8%
  activation at 0.001 µg/mL: 28.3%
Isolated rabbit hearts [2]; 1·10^-5 g/lt
  Coronary flow, Mean ± S.E.: 90.12 ± 8.18%
Isolated rabbit hearts [2]; 1·10^-6 g/lt
  Coronary flow, Mean ± S.E.: 74.01 ± 6.19%

## CC(N)Cc1ccccc1 (racemic) [d,l-amphetamine, reference compound]
Female rats; session 1 (every 15 minutes)
  responders at 0.25 mg/kg: 0%
  responders at 0.5 mg/kg: 0%
  responders at 1 mg/kg: 0%
Female rats; session 2 (every 15 minutes)
  responders at 0.25 mg/kg: 12.5%
  responders at 0.5 mg/kg: 5.88%
  responders at 1 mg/kg: 8.33%
Female rats; session 3 (every 15 minutes)
  responders at 0.25 mg/kg: 25%
  responders at 0.5 mg/kg: 11.8%
  responders at 1 mg/kg: 25%
Female rats; session 4 (every 15 minutes)
  responders at 0.25 mg/kg: 25%
  responders at 0.5 mg/kg: 23.5%
  responders at 1 mg/kg: 33.3%
Female rats; session 5 (every 15 minutes)
  responders at 0.25 mg/kg: 25%
  responders at 0.5 mg/kg: 29.4%
Female rats; session 6 (every 15 minutes)
  responders at 0.25 mg/kg: 25%
  responders at 0.5 mg/kg: 35.3%
Female rats; session 5 (every 15 minutes), * p < 0.05
  responders at 1 mg/kg: 58.3%
Female rats; [3]
  responders at 1 mg/kg: 58.3%

## C=C[C@H]1C[N@@]2CC[C@H]1C[C@@H]2[C@@H](O)c1ccnc2ccc(OC)cc12 [Quinidine, reference compound]
Isolated rat atrium; [4]
  inhibition at 0.1 µg/mL: 189%
  inhibition at 0.01 µg/mL: 23.4%
  inhibition at 0.001 µg/mL: 16.9%
Isolated rat atrium; [5]
  inhibition at 0.1 µg/mL: 71.2%
  inhibition at 0.01 µg/mL: 24.1%
  inhibition at 0.001 µg/mL: 11.7%
Isolated rat atrium; [6]
  activation at 0.1 µg/mL: 57.4%
  activation at 0.01 µg/mL: 20.4%
  activation at 0.001 µg/mL: 3.12%
Isolated rat atrium; [7]
  activation at 0.1 µg/mL: 54.1%
  activation at 0.01 µg/mL: 25.1%
  activation at 0.001 µg/mL: 7.14%
